Laboratory results taken from PMC11173194, “Optimizing Antimicrobial Peptide Design: Integration of Cell-Penetrating Peptides, Amyloidogenic Fragments, and Amino Acid Residue Modifications” (International Journal of Molecular Sciences, 2024).

Key:
[1] = test system: S. aureus 129B strain; assay: Antibacterial activity in liquid medium; format: cell-based, Staphylococcus aureus; settings: for Peptide Efficacy in Liquid Medium after 24 h of Incubation: S. aureus 129B strain (clinical isolate), Mueller–Hinton Broth, two independent experiments
Description: (§1) We utilized various strains of microorganisms in this study. […] Bacillus cereus strain IP 5832 (susceptible), Pseudomonas aeruginosa strains ATCC 28753 (susceptible) and 2943 (resistant), and Escherichia coli strains K12 and MG1655 (both susceptible) were also utilized in our experiments.
(§2) S. aureus (strains 209P and 129B), MRSA (strains ATCC 43300 and SA 180-F), B. cereus (strain IP 5832), P. aeruginosa (strains ATCC 28753 and 2943), and E. coli (strains K12 and MG1655) were cultured on Mueller–Hinton Broth (MHB).
(§3) Statistical analysis was conducted using the SigmaPlot v15 software package (SPSS Inc., Chicago, IL, USA). Each experiment was repeated at least twice (n ≥ 2). Data are presented as mean ± standard deviation (M ± SD). Statistical significance was assessed using Student’s t-test and analysis of variance (ANOVA) in the tests of the antibacterial activity of the peptides. The confidence interval value of 0.95 was used, corresponding to an alpha value of 0.05. Statistically significant decreases in optical density compared to the negative control were considered for specific peptide concentrations with p-values below 0.05.

[2] = test system: S. aureus 209P strain; assay: Antibacterial activity in liquid medium; format: cell-based, Staphylococcus aureus; settings: for Peptide Efficacy in Liquid Medium after 15 h of Incubation: S. aureus 209P strain, Mueller–Hinton Broth, two independent experiments; for concentration at which inhibition of bacterial growth was observed (Figure 1): S. aureus 209P, liquid medium, 15 h, gentamicin positive control
Description: as §1, §2, §3

[3] = test system: MRSA ATCC 43300 strain; assay: Antibacterial activity in liquid medium; format: cell-based, methicillin-resistant Staphylococcus aureus; settings: for Peptide Efficacy in Liquid Medium after 15 h of Incubation: MRSA ATCC 43300 strain, Mueller–Hinton Broth, two independent experiments
Description: as §1, §2, §3

[4] = test system: MRSA SA 180-F strain; assay: Antibacterial activity in liquid medium; format: cell-based, methicillin-resistant Staphylococcus aureus; settings: MRSA SA 180-F strain (clinical isolate), Mueller–Hinton Broth, two independent experiments
Description: as §1, §2, §3

[5] = test system: B. cereus IP 5832 strain; assay: Antibacterial activity in liquid medium; format: cell-based, Bacillus cereus; settings: Mueller–Hinton Broth, two independent experiments
Description: as §1, §2, §3

[6] = test system: P. aeruginosa 2943 strain; assay: Antibacterial activity in liquid medium; format: cell-based, Pseudomonas aeruginosa; settings: for Peptide Efficacy in Liquid Medium after 24 h of Incubation: P. aeruginosa 2943 strain (resistant), Mueller–Hinton Broth, two independent experiments; for antimicrobial effect compared to the negative control (Figure 3): P. aeruginosa 2943, liquid medium, 24 h
Description: as §1, §2, §3

[7] = test system: P. aeruginosa ATCC 28753; assay: Antibacterial activity in liquid medium; format: cell-based, Pseudomonas aeruginosa; settings: for Peptide Efficacy in Liquid Medium after 15 h of Incubation: Mueller–Hinton Broth, two independent experiments; for concentrations of peptides suppressing the growth of bacteria compared to the negative control (Figure 3): liquid medium, 15 h
Description: as §1, §2, §3

[8] = test system: E. coli K12 strain; assay: Antibacterial activity in liquid medium; format: cell-based, Escherichia coli; settings: for Peptide Efficacy in Liquid Medium after 15 h of Incubation: E. coli K12 strain, Mueller–Hinton Broth, two independent experiments; for concentration with antimicrobial activity / effective concentration (text to Figure 4): E. coli K12, liquid medium, 15 h
Description: as §1, §2, §3

[9] = test system: E. coli MG1655 strain; assay: Antibacterial activity in liquid medium; format: cell-based, Escherichia coli; settings: for Peptide Efficacy in Liquid Medium after 24 h of Incubation: E. coli MG1655 strain, Mueller–Hinton Broth, two independent experiments; for concentration with antimicrobial activity / effective concentration (text to Figure 4): E. coli MG1655, liquid medium, 24 h
Description: as §1, §2, §3

[10] = test system: S. aureus (strain 209P), MRSA (strain ATCC 43300), B. cereus (strain IP 5832), P. aeruginosa (strain ATCC 28753), and E. coli (strain K12); assay: Antimicrobial effect compared with gentamicin, panel of Figure 5; format: cell-based; settings: Figure 5 panel; Mueller–Hinton Broth; 15 h; two independent experiments
Description: The antibiotic gentamicin sulfate was used as a positive control. The concentration of gentamicin was 100 µM. Cell cultures in a liquid medium (Mueller–Hinton Broth) served as a negative control. Error bars show standard errors. Number of independent experiments is two. #—for significant differences with negative control p < 0.05.
as §2, §3

[11] = test system: human skin fibroblasts; assay: Toxicity of peptides against human fibroblasts (calcein AM / propidium iodide; cell cycle); format: cell-based; settings: 96 h, both with and without pre-incubation; for number of dead cells: calcein AM / propidium iodide
Description: The peptides were pre-incubated for 12 h in DMEM medium without serum in a CO2 incubator. After the incubation period, serum was added to the medium to a final concentration of 10%, and the preparation was added dropwise onto the cells. The cytotoxic effects of peptides against eukaryotic cells (human fibroblasts and BT474) were subsequently assessed using the same method as in the previous study [62].

[12] = POPE:POPG bilayer; 0.1 M KCl, pH 7.4; subthreshold peptide concentrations (20 µg/mL)
Excerpt: The effects of peptide R44K^S on the ionic permeability of planar lipid bilayers composed of an equimolar mixture of POPE and POPG mimicking target bacterial cell membranes was examined. The example of the time dependence of the transmembrane current produced by a subsequent one-side addition of R44K^S into the bathing solution (0.1 M KCl, pH 7.4) is shown in Figure 7A.
The method of recording the transmembrane current under voltage-clamp conditions was used to study the effect of a synthetic peptide on a lipid membrane. Planar lipid bilayers were formed by the Montal and Mueller technique on an aperture of 50 µm diameter in a 10 µm thick Teflon film separating two compartments of Teflon chambers. Each compartment contained 0.1 M KCl and 10 mM HEPES at pH 7.4. Hexadecane was used for the aperture pretreatment. […]
Ag/AgCl electrodes with 1.5% agarose/2 M KCl bridges were used to apply the transmembrane voltage (V) and measure the current flowing through the bilayer (I). […] Data were digitized by a Digidata 1550A and analyzed using pClamp 10.7 (Molecular Devices, LLC, Orleans Drive, Sunnyvale, CA, USA) and Origin 7.0 (OriginLab Corporation, Northampton, MA, USA). […]

[13] = test system: BT474 cells; settings: 100 µg/mL, both with and without pre-incubation, 96 h
Description: To analyze the cytotoxic effect, cells after incubation with peptides were stained with calcein AM (stains living cells) and propidium iodide (stains dead cells).
Analysis of the cytostatic effect was performed on the basis of the distribution of cells by phases of the cell cycle and mitotic activity.
The peptides were pre-incubated for 12 h in DMEM medium without serum in a CO2 incubator. After the incubation period, serum was added to the medium to a final concentration of 10%, and the preparation was added dropwise onto the cells. The cytotoxic effects of peptides against eukaryotic cells (human fibroblasts and BT474) were subsequently assessed using the same method as in the previous study.

Substance | Peptide Efficacy in Liquid Medium after 24 h of Incubation [1] | Peptide Efficacy in Liquid Medium after 15 h of Incubation [2] | Peptide Efficacy in Liquid Medium after 15 h of Incubation [3] | Peptide Efficacy in Liquid Medium after 24 h of Incubation [4] | Peptide Efficacy in Liquid Medium after 24 h of Incubation [6] | Peptide Efficacy in Liquid Medium after 15 h of Incubation [7] | Peptide Efficacy in Liquid Medium after 15 h of Incubation [8] | Peptide Efficacy in Liquid Medium after 24 h of Incubation [9] | concentration at which inhibition of bacterial growth was observed (Figure 1) [2] | antimicrobial effect compared to the negative control (Figure 3) [6] | concentrations of peptides suppressing the growth of bacteria compared to the negative control (Figure 3) [7] [µM] | concentration with antimicrobial activity / effective concentration (text to Figure 4) [8] | concentration with antimicrobial activity / effective concentration (text to Figure 4) [9] [µM] | cytotoxic effect ([11]; 100 µg/mL) | also measured
RKKRRQRRRGG-Sar-GVVVHI-X-GGKF-NH2 [R23F^S*, Peptide with TAT fragment and modified amyloidogenic fragment of S. aureus S1 protein, C-terminal amide] | 379.8 µM | 6 µM | 12 µM | 379.8 µM | 38 µM | 6 µM | 3 µM | 379.8 µM |  |  |  |  |  |  | Peptide Efficacy in Liquid Medium after 15 h of Incubation [5]: 3 µM; concentrations with antimicrobial effect comparable to gentamicin (100 μM) against all bacteria [10]: 24 to 48 µM; number of dead cells ([11]; 50 µg/mL): 11 ± 3%; number of dead cells ([11]; 100 µg/mL): 12 ± 3%
RKKRRQRRRGGGGVVVHINGGKFGGGGSRQIKIWFQNRRMKWKK [R44K^S, Unmodified peptide: TAT fragment, amyloidogenic fragment and Antp fragment; commercial product] | >194.4 µM, 129B strain | 6 µM | 12 µM | >194.4 µM, SA 180-F strain | >194.4 µM, 2943 strain | 3 µM | 6 µM | 194.4 µM | 6 to 12 µM | did not exhibit antimicrobial effects | 1.5 | 6 µM | 19.4 | no cytotoxic effect | concentration at which inhibitory effect / complete suppression of growth was observed (text to Figure 2) ([3]; MRSA ATCC 43300, liquid medium, 15 h): 12 µM; single pore conductance [12]: 10–30 pS
VVVHINGGKFGGGGSRQIKIWFQNRRMKWKK [V31K^S] | >276.8 µM, 129B strain | >12 µM, 209P strain | >12 µM, ATCC 43300 strain | >276.8 µM, SA 180-F strain | >276.8 µM, 2943 strain | >12 µM, ATCC 28753 | >12 µM, K12 strain | >276.8 µM, MG1655 strain | not demonstrated | did not exhibit antimicrobial effects | 6 | did not exhibit antimicrobial activity | 276.8 | no cytotoxic effect | complete inhibition of bacterial growth (Figure 1) ([1]; S. aureus 129B, liquid medium, 24 h): not demonstrated; cytotoxic effect [13]: no cytotoxic effect
